Counter-ions that a name gives are not always drawn.
Target: T1, human recombinant HPK1 (Homo sapiens, UniProt Q92918)
T1 construct: purchased BPS Bioscience
Assay: Inhibitory activity against human recombinant HPK1 (TR-FRET)
Type: biochemical
Settings: ULight-p70S6K peptide, ATP at Km, room temperature, 1 hour, 0.32 to 1000 nM compound
Outline: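 Recombinant human HPK1 with ULight-p70S6K peptide and ATP at Km, 1 h at room temperature in HEPES pH 7.4 buffer with Mg2+, Mn2+, EGTA, DTT; compounds 0.32–1000 nM final. EDTA stop, Eu-anti-phosphopeptide TR-FRET read (665 nm); IC50 from % inhibition versus DMSO, binned A–D at 10, 50, 100 nM.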

T1 sequence (Q92918 whole entry): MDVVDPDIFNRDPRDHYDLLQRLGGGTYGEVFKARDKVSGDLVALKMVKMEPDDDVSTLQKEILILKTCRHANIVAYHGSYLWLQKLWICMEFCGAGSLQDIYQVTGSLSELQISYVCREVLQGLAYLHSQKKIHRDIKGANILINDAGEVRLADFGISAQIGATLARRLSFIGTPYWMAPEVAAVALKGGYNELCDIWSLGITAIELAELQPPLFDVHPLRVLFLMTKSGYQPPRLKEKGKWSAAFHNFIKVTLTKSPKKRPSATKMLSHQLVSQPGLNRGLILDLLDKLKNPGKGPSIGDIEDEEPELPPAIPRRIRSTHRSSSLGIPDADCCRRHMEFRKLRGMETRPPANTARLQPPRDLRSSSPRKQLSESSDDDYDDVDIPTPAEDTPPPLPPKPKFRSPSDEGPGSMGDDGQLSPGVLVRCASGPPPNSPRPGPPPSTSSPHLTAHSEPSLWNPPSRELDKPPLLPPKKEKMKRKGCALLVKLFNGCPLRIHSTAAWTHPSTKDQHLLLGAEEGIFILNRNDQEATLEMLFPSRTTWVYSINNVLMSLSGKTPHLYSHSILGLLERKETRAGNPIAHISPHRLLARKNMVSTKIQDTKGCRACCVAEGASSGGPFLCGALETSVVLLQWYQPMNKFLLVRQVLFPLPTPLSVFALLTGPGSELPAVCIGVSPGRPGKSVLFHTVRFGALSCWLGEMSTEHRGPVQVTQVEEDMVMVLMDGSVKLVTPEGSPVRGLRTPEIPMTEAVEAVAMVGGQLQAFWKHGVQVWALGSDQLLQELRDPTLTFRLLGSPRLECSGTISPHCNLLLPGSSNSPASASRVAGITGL

Row | IC50 [nM] | Structure (SMILES)
1 | ≤ 10 | COc1cccc(F)c1-c1nccc(Nc2cc(N3CCC[C@H](N)C3)c(-c3cnc4c(c3)OCCN4C)cn2)n1 [Example 256, (S)-N-(4-(3-aminopiperidin-1-yl)-5-(4-methyl-3,4-dihydro-2H-pyrido[3,2-b][1,4]oxazin-7-yl)pyridin-2-yl)-2-(2-fluoro-6-methoxyphenyl)pyrimidin-4-amine hydrochloride]
2 | ≤ 10 | COc1cccc(F)c1-c1nccc(Nc2cc(N3CCC(F)(CN(C)C)CC3)c(-c3cnn(C4CCOCC4)c3)cn2)n1 [Example 46, N-(4-(4-((dimethylamino)methyl)-4-fluoropiperidin-1-yl)-5-(1-(tetrahydro-2H-pyran-4-yl)-1H-pyrazol-4-yl)pyridin-2-yl)-2-(2-fluoro-6-methoxyphenyl)pyrimidin-4-amine]
3 | ≤ 10 | COc1cccc(F)c1-c1nc(Nc2cc(N3CCC[C@H](N)C3)c(-c3cnn(CC(F)(F)F)c3)cn2)ccc1[N+](=O)[O-] [Example 153, 4-((S)-3-aminopiperidin-1-yl)-N-(6-(2-fluoro-6-methoxyphenyl)-5-nitropyridin-2-yl)-5-(1-(2,2,2-trifluoroethyl)-1H-pyrazol-4-yl)pyridin-2-amine hydrochloride]
4 | ≤ 10 | COC(=O)c1ccc(Nc2cc(N3CCC[C@H](O)C3)c(-c3cnn(C4CCOCC4)c3)cn2)nc1-c1c(F)cccc1OC [Example 60, methyl 2-(2-fluoro-6-methoxyphenyl)-6-((4-((S)-3-hydroxypiperidin-1-yl)-5-(1-(tetrahydro-2H-pyran-4-yl)-1H-pyrazol-4-yl)pyridin-2-yl)amino)nicotinate]
5 | ≤ 10 | COc1cccc(F)c1-c1nccc(Nc2cc(N3CCC[C@H](N)C3)c(C#Cc3cnn(CC(F)F)c3)cn2)n1 [Example 165, (S)-N-(4-(3-aminopiperidin-1-yl)-5-((1-(2,2-difluoroethyl)-1H-pyrazol-4-yl)ethynyl)pyridin-2-yl)-2-(2-fluoro-6-methoxyphenyl)pyrimidin-4-amine hydrochloride]
6 | ≤ 10 | COc1cccc(F)c1-c1nccc(Nc2cc(N3CCC[C@](C)(N)C3)c(-c3cnn(C(F)F)c3)cn2)n1 [Example 206, (S)-N-(4-(3-amino-3-methylpiperidin-1-yl)-5-(1-(difluoromethyl)-1H-pyrazol-4-yl)pyridin-2-yl)-2-(2-fluoro-6-methoxyphenyl)pyrimidin-4-amine hydrochloride]
7 | ≤ 10 | COc1cccc(F)c1-c1nccc(Nc2cc(N3CC[C@@H](N)[C@H](O)C3)c(-c3cnn(C(F)F)c3)cn2)n1 [Example 295, (3R,4R)-4-amino-1-(5-(1-(difluoromethyl)-1H-pyrazol-4-yl)-2-((2-(2-fluoro-6-methoxyphenyl)pyrimidin-4-yl)amino)pyridin-4-yl)piperidin-3-ol]
8 | ≤ 10 | COc1cccc(F)c1-c1nccc(Nc2cc(N3CCC[C@H](N)C3)c(-c3cnn(C4CNC4)c3)cn2)n1 [Example 168, (S)-N-(4-(3-aminopiperidin-1-yl)-5-(1-(azetidin-3-yl)-1H-pyrazol-4-yl)pyridin-2-yl)-2-(2-fluoro-6-methoxyphenyl)pyrimidin-4-amine hydrochloride]
9 | 10 to 50 | COc1cccc(F)c1-c1nccc(Nc2cc(N3CCCC(CC(F)(F)F)C3)c(-c3cnn(C4CCOCC4)c3)cn2)n1 (stereo not shown) [Example 84, 2-(2-fluoro-6-methoxyphenyl)-N-(5-(1-(tetrahydro-2H-pyran-4-yl)-1H-pyrazol-4-yl)-4-(3-(2,2,2-trifluoroethyl)piperidin-1-yl)pyridin-2-yl)pyrimidin-4-amine]
10 | 10 to 50 | COc1cccc(F)c1-c1nccc(Nc2cc(N3CCC[C@H](O)C3)c(-c3ccc(CN4CCN(C)CC4)nc3)cn2)n1 [Example 30, (S)-1-(6-((2-(2-fluoro-6-methoxyphenyl)pyrimidin-4-yl)amino)-6′-((4-methylpiperazin-1-yl)methyl)-[3,3′-bipyridin]-4-yl)piperidin-3-ol]
11 | ≤ 10 | COCCCn1cc(-c2cnc(Nc3ccnc(-c4c(F)cccc4OC)n3)cc2N2CCC[C@H](N)C2)cn1 [Example 116, (S)-N-(4-(3-aminopiperidin-1-yl)-5-(1-(3-methoxypropyl)-1H-pyrazol-4-yl)pyridin-2-yl)-2-(2-fluoro-6-methoxyphenyl)pyrimidin-4-amine hydrochloride]
12 | ≤ 10 | COc1cccc(F)c1-c1nccc(Nc2cc(N3CCC[C@H](N)C3)c(-c3ccc(OC(F)(F)F)c(C)c3)cn2)n1 [Example 281, (S)-N-(4-(3-aminopiperidin-1-yl)-5-(3-methyl-4-(trifluoromethoxy)phenyl)pyridin-2-yl)-2-(2-fluoro-6-methoxyphenyl)pyrimidin-4-amine hydrochloride]
13 | ≤ 10 | COc1cccc(F)c1-c1nccc(Nc2cc(N3CCC[C@H](N)C3)c(-c3cnn(CCCN(C)C)c3)cn2)n1 [Example 236, (S)-N-(4-(3-aminopiperidin-1-yl)-5-(1-(3-(dimethylamino)propyl)-1H-pyrazol-4-yl)pyridin-2-yl)-2-(2-fluoro-6-methoxyphenyl)pyrimidin-4-amine hydrochloride]
14 | ≤ 10 | CN[C@H]1CCN(c2cc(Nc3ccnc(-c4c(F)cccc4OC)n3)ncc2-c2cnn(C3CCOCC3)c2)C1 [Example 124, (S)-2-(2-fluoro-6-methoxyphenyl)-N-(4-(3-(methylamino)pyrrolidin-1-yl)-5-(1-(tetrahydro-2H-pyran-4-yl)-1H-pyrazol-4-yl)pyridin-2-yl)pyrimidin-4-amine]
15 | ≤ 10 | COc1cc(F)cc(F)c1-c1nc(Nc2cc(N3CC[C@@H](C)[C@H](N)C3)c(-c3cnn(C(F)F)c3)cn2)ccc1N [Example 215, N^2-(4-((3S,4R)-3-amino-4-methylpiperidin-1-yl)-5-(1-(difluoromethyl)-1H-pyrazol-4-yl)pyridin-2-yl)-6-(2,4-difluoro-6-methoxyphenyl)pyridin-2,5-diamine hydrochloride]
16 | ≤ 10 | COc1cccc(F)c1-c1nc(Nc2cc(N3CC[C@@H](F)[C@H](O)C3)c(-c3cnn(C(F)F)c3)cn2)ccc1C#N [Example 331, 6-((5-(1-(difluoromethyl)-1H-pyrazol-4-yl)-4-((3R,4R)-4-fluoro-3-hydroxypiperidin-1-yl)pyridin-2-yl)amino)-2-(2-fluoro-6-methoxyphenyl)nicotinonitrile]
17 | ≤ 10 | COc1cccc(F)c1-c1nccc(Nc2cc(N3CCC(C(C)O)CC3)c(-c3cnn(C4CCOCC4)c3)cn2)n1 (stereo not shown) [Example 66, 1-(1-(2-((2-(2-fluoro-6-methoxyphenyl)pyrimidin-4-yl)amino)-5-(1-(tetrahydro-2H-pyran-4-yl)-1H-pyrazol-4-yl)pyridin-4-yl)piperidin-4-yl)ethan-1-ol]
18 | ≤ 10 | COc1cc(F)cc(F)c1-c1nccc(Nc2cc(N3CCC[C@H](O)C3)c(-c3cnn(C(F)(F)F)c3)cn2)n1 [Example 171, (S)-1-(2-((2-(2,4-difluoro-6-methoxyphenyl)pyrimidin-4-yl)amino)-5-(1-(trifluoromethyl)-1H-pyrazol-4-yl)pyridin-4-yl)piperidin-3-ol]
19 | 10 to 50 | COc1cccc(F)c1-c1nccc(Nc2cc(N3CCN(C)CC3)c(-c3cnn(C4CCOCC4)c3)cn2)n1 [Example 68, 2-(2-fluoro-6-methoxyphenyl)-N-(4-(4-methylpiperazin-1-yl)-5-(1-(tetrahydro-2H-pyran-4-yl)-1H-pyrazol-4-yl)pyridin-2-yl)pyrimidin-4-amine]

From US20260347338A1, “PYRIMIDINE/PYRIDINE DERIVATIVES OR SALTS THEREOF AND PHARMACEUTICAL COMPOSITIONS COMPRISING THE SAME” (YUHAN CORPORATION, priority 2023, published 2026)
